Assay [1] relates to human neutrophils. Put plainly: Binding of DTAF-labeled PGG β-glucan to human neutrophils, with excess unlabeled competitor. The class given is cell-based. The settings on record: 10 mg/mL unlabeled competitor; 25 μg/mL DTAF-labeled β-glucan.
Method: In early optimization experiments, neutrophils, monocytes, and T cells were identified by staining with fluorescently labeled anti-CD 15, anti-CD 14, or anti-CD3 Abs, respectively. Events were collected on a LSRII flow cytometer (BD Biosciences, San Jose, Calif.) and analysis was performed using FLOWJO (Tree Star, Ashland, Oreg.). For assessing binding of DTAF-labeled PGG β-glucan to human neutrophils, 25 βg/mL, 100 μg/mL, or 400 μg/mL of labeled β-glucan was added to neutrophils resuspended in RPMI/10% serum, incubated in a 37° C., 5% CO2 humidified incubator for one hour, washed twice with cold FACS buffer, and fixed with 1% paraformaldehyde. Surface binding of DTAF-conjugated β-glucan was subsequently assessed by flow cytometric analysis.
In assay [2] the target is T1, iC3b (Homo sapiens, UniProt P01024).
T1 construct: from tissue
Put plainly: Immunoprecipitation of PGG β-glucan with BfD IV and detection of pulled-down iC3b. To be noted: glucan incubated with regular serum. The class given is binding. As to the method: PGG β-glucan or dextran at concentration 60-80 mg/mL was incubated with regular or HI serum at 1:10 volume ratio for 30 minutes in a 37° C. water bath. BfD IV Ab was added to the serum/β-glucan mixture and incubated at room temperature for additional 30 minutes. Magnetic beads conjugated with rat anti-mouse IgM (DYNABEADS, Invitrogen, Camarillo, Calif.) were washed three times with DPBS and incubated with serum-PGG β-glucan-BfD IV mixture for another 30 minutes at room temperature. The beads were separated magnetically and iC3b pulled-down along with immunoprecipitated PGG was probed using FITC-conjugated complement C3 Ab by flow cytometer.

Assay [3] addresses T1, iC3b. Put plainly: ELISA for iC3b deposition on immobilized PGG β-glucan. Type of assay: binding. The settings on record: for Effect of serum treatment on iC3b deposition on immobilized β-glucan: methylamine 0.67%, 10 mM EGTA, 10 mM EGTA+10 mM MgCl2. How it is done:
PGG β-glucan or dextran was immobilized on wells of a 96-well polystyrene plate (COSTAR, Coming, Inc., Lowell, Mass.) by drying the glucans at 50° C. followed by UV cross-linking. The glucan-coated plate was first blocked with 1% BSA before incubation with untreated serum or serum undergone various treatments as described in binding studies, diluted 1:2 with wash buffer (PBS/0.05% Tween-20) for 30 minutes at 37° C. After washing the serum from the plate, the bound iC3b was probed using the anti-iC3b monoclonal antibody followed by biotin-labeled goat anti-mouse IgG Ab. The amount of immobilized biotin-labeled antibody was determined using streptavidin peroxidase and TMB substrate solution (KPL, Gaithersburg, Md.). OD450 of each well was measured with the spectrophotometer SpectraMAX 250 (Molecular Devices, Sunnyvale, Calif.). Fold change was calculated as OD450 of wells containing immobilized β-glucan divided by OD450 of wells containing no β-glucan, both incubated in the presence of treated or untreated serum.
(An ELISA detects its analyte on a solid surface through an enzyme-linked reagent.)

Assay [4] deals with human neutrophils. Put plainly: Binding studies on the role of complement proteins in serum, neutrophils. The settings on record: for Effect of the agent added to serum or media on binding of PGG β-glucan: compstatin/control peptide 20 or 100 μM, methylamine 0.67%, 166-32 20 μg/mL, HSA 10%. The class given is cell-based. How it is done: (§1) Heat-inactivated (HI) serum was prepared by incubating serum in a 56° C. water bath for 30 minutes. […] Treatment of serum with methylamine (MA) was done by incubating serum with 0.67% of methylamine for 2.5 hours at 37° C., followed by three washes with DPBS using Amicon centrifugal filter unit with a 3K MW cut-off (Millipore, Billerica, Mass.). DPBS-treated serum was prepared in the same manner and used as control serum for MA-treated serum. For blocking of factor D in the serum, 166-32 at concentration 20 μg/mL was incubated with serum on ice for 30 minutes, and then used for binding studies. For binding experiments in the presence of EGTA or MgEGTA, serum was incubated with 10 mM EGTA with or without 10 mM MgCl2 for 10 minutes at room temperature. The untreated and EGTA/MgEGTA-treated serum was then used to pre-treat PGG and perform binding studies as described earlier.

Assay [5] has as its system human monocytes. Put plainly: Binding studies on the role of complement proteins in serum, monocytes. Type of assay: cell-based. The settings on record: for Effect of the agent added to serum or media on binding of PGG β-glucan: compstatin/control peptide 20 or 100 μM, methylamine 0.67%, 166-32 20 μg/mL, HSA 10%. As to the method: as §1
Assay [6] concerns sC5b-9 complex. Description: Measurement of fluid-phase SC5b-9 complex formation in the serum. The class given is biochemical, human. To be noted: serum treated with 10 mM EGTA with or without 10 mM MgCl2. How it is done: The MicroVue SC5b-9 EIA kit was used to measure activation of the classical and alternative pathways of complement according to the vendor's instruction (Quidel Corp., San Diego, Calif.). Briefly, the serum, untreated or treated was mixed with PBS, Ab-sensitized sheep RBC (SRBC), or 20 units of CVF and added to plate wells pre-coated with anti-sC5b-9 monoclonal antibody. The plate was incubated at 37° C. for 60 minutes, followed by five washes with the provided wash buffer. The plate was then incubated with the provided SC5b-9 Plus Conjugate, which contained horseradish peroxidase-conjugated Ab specific for sC5b-9 at room temperature for 30 minutes. The plate was washed five times, incubated with the substrate for 15 minutes at room temperature to initiate the enzymatic reaction and subsequently quenched with the stop solution. OD450 Was measured using the spectrophotometer SpectraMAX 250. The concentration of fluid phase sC5b-9 present in the samples was determined from the standard curve generated with the provided sC5b-9 standards.

In assay [7] the test system is human neutrophils. Put plainly: Binding of PGG β-glucan after serum pre-treatment, neutrophils. The class given is cell-based. The settings on record: 10 mM EGTA with or without 10 mM MgCl2; vs untreated serum. As to the method:
(§2) PGG β-glucan at concentration 60-80 mg/mL was incubated with human serum at 1:10 volume ratio for 30 minutes in a 37° C. water bath. The serum-pretreated PGG β-glucan was added to neutrophils at 200 μg/mL or to PBMC at 100 μg/mL resuspended in RPM1 containing either 10% regular autologous serum or 10% HI serum at indicated time and temperature of incubation. Binding was then determined as described previously.
(§3) To determine the role of complement proteins in binding, experiments were performed as described above except for using serum containing 10% HI, compstatin-treated or methylamine (MA)-treated, EGTA- or EGTA+MgCl2 (MgEGTA)-treated, or factor D-blocked serum. Heat-inactivated (HI) serum was prepared by incubating serum in a 56° C. water bath for 30 minutes. […] Treatment of serum with methylamine (MA) was done by incubating serum with 0.67% of methylamine for 2.5 hours at 37° C., followed by three washes with DPBS using Amicon centrifugal filter unit with a 3K MW cut-off (Millipore, Billerica, Mass.). DPBS-treated serum was prepared in the same manner and used as control serum for MA-treated serum. For blocking of factor D in the serum, 166-32 at concentration 20 μg/mL was incubated with serum on ice for 30 minutes, and then used for binding studies. […]

The subject of assay [8] is human monocytes. Description: Binding of PGG β-glucan after serum pre-treatment, monocytes. Type of assay: cell-based. To be noted: 10 mM EGTA with or without 10 mM MgCl2; vs untreated serum. As to the method: as §2, §3
Where [9] appears, read: 100 μM compstatin-treated serum vs control peptide, C3 blocking, three donors.

T1 sequence (P01024 749-1303 limits assumed): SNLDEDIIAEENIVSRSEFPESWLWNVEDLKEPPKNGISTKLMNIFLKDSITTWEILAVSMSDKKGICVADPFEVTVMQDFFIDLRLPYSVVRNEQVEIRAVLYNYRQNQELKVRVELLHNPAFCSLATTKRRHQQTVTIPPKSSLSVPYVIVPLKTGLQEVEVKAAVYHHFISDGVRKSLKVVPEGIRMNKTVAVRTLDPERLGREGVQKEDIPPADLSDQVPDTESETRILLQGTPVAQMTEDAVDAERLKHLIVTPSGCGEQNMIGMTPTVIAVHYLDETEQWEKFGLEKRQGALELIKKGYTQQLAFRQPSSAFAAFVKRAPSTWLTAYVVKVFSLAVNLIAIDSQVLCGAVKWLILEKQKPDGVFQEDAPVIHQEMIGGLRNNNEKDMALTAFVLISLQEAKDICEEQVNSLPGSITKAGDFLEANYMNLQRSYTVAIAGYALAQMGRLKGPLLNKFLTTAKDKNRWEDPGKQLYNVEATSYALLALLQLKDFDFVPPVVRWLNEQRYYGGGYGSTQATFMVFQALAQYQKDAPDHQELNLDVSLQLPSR
T1 sequence (P01024 23-667 partner limits assumed): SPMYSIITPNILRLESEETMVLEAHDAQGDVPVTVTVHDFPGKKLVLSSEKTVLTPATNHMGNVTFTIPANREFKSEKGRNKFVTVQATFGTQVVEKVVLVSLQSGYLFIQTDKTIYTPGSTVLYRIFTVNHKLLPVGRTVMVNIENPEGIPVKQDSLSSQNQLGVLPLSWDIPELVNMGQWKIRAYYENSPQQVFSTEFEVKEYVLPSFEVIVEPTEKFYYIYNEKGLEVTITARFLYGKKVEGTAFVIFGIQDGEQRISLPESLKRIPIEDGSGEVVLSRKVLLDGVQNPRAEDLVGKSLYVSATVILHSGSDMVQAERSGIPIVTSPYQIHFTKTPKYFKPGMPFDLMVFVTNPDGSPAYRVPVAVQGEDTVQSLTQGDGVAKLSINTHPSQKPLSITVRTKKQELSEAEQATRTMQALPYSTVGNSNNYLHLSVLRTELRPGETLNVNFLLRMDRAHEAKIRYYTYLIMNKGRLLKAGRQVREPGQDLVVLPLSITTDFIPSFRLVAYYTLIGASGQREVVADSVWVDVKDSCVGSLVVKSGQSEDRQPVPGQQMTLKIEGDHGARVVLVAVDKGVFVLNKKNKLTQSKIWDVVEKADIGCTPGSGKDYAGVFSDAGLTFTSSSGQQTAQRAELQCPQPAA
T1 sequence (P01024 1321-1663 partner limits assumed): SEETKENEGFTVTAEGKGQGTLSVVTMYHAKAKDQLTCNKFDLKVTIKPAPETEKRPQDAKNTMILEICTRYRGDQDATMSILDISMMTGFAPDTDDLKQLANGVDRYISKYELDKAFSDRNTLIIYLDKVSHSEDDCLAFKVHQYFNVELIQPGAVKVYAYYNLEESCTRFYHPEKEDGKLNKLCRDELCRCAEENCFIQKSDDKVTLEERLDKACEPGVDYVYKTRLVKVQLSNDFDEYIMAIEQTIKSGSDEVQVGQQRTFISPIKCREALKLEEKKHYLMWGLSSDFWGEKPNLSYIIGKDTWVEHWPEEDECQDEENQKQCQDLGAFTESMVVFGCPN

In the case of dextran [reference compound], the “Blocking of DTAF-labeled β-glucan staining by excess unlabeled glucan” value in assay [1] is “did not block binding”. Also, the “iC3b pulled down with BfD IV immunoprecipitate” value in assay [2] is “absence of iC3b”. Besides, the “Fold increase of iC3b detected on immobilized glucan compared to background” value in assay [3] (300 μg/mL immobilized, regular serum 30 minutes at 37° C.) is given as “significantly less iC3b detected”.

With `CN` [methylamine], the “Effect of the agent added to serum or media on binding of PGG β-glucan” value (shortened to “Effect of the agent added”) in assay [4] and in assay [5] was “abrogated the ability of PGG β-glucan to bind to cells” throughout. For the same compound, the “Effect of serum treatment on iC3b deposition on immobilized β-glucan” value in assay [3] was “complete inhibition of iC3b deposition”.

With `CC[C@H](C)[C@H](N)C(=O)N[C@H]1CSSC[C@@H](C(=O)N[C@H](C(N)=O)[C@@H](C)O)NC(=O)[C@H](CCCN=C(N)N)NC(=O)[C@H](Cc2cnc[nH]2)NC(=O)[C@H](Cc2cnc[nH]2)NC(=O)CNC(=O)[C@H](Cc2c[nH]c3ccccc23)NC(=O)[C@H](CC(=O)O)NC(=O)[C@H](CCC(N)=O)NC(=O)[C@H](C(C)C)NC(=O)[C@H](C(C)C)NC1=O` [compstatin], the “Average percentage of inhibition of β-glucan binding” value in assay [4] (setting [9]) amounted to 95%; in assay [5] (setting [9]) it was 80%. The “Range of percentage of inhibition of β-glucan binding” value in assay [4] (setting [9]) is 90-98%; in assay [5] (setting [9]), 62-92%. The “Effect of the agent added” value in assay [4] and in assay [5] was “inhibited binding of β-glucan in a concentration-dependent manner” throughout.

Take `O=C(O)CN(CCOCCOCCN(CC(=O)O)CC(=O)O)CC(=O)O` [EGTA]: in assay [6], the “Effect on CVF-activated alternative pathway (sC5b-9 formation)” value was “completely blocked both the classical and alternative pathways to background levels”; the “Effect on SRBC-activated classical pathway (sC5b-9 formation)” value is “completely blocked both the classical and alternative pathways to background levels”. Further, in assay [7], the “Rescue of binding to cells in HI serum by PGG β-glucan pre-opsonized in treated serum” value was “rescue of binding was diminished”. Also, in assay [3], the “Effect of serum treatment on iC3b deposition on immobilized β-glucan” value was “completely inhibited”. The “Rescue of binding to cells in HI serum by PGG β-glucan pre-opsonized in treated serum” value in assay [8] is given as “rescue of binding was diminished”.

For “control peptide: control peptide IAVVQDWGHHRAT (SEQ ID NO:2) (control polypeptide)”, the “Effect of the agent added” value in assay [4] and in assay [5] was “no effect on binding” throughout.

The record behind these values is US10092657B2, “Opsonized β-glucan preparations and methods” (Biothera, Inc., priority 2011, dated 2018).
